Experimental data taken from ChEMBL document CHEMBL4334518, “Discovery and Pharmacological Studies of 4-Hydroxyphenyl-Derived Phosphonium Salts Active in a Mouse Model of Visceral Leishmaniasis” (J Med Chem, 2019).

Assays:
Leishmania infantum [1] = experiment: Antileishmanial activity against Leishmania infantum promastigote after 72 hrs by MTT assay; assay type: functional, organism-based
[2] = Selectivity index, ratio of EC50 for cytotoxicity against human THP1 cells to EC50 for antileishmanial activity against Leishmania infantum amastigotes infected in human THP1 cells; assay type: toxicity, cell-based; conditions: read-out: Ratio EC50
[3] = Drug uptake in Leishmania infantum LEM 3049 isolate promastigotes at 20 uM after 10 mins at 28 degC by fluorimetric assay; assay type: ADME
[4] = Drug uptake in Leishmania infantum LEM 3049 isolate promastigotes at 20 uM after 10 mins at 4 degC by fluorimetric assay; assay type: ADME
Leishmania infantum [5] = experiment: Antileishmanial activity against Leishmania infantum amastigotes infected in human THP1 cells after 96 hrs by prolong-gold antifade-reagent/DAPI staining based assay; assay type: functional, organism-based; conditions: THP-1, 96 h
[6] = Drug uptake in ATP depleted Leishmania infantum LEM 3049 isolate promastigotes at 20 uM after 10 mins in presence of 2-deoxy-D-glucose by fluorimetric assay; assay type: ADME
THP-1 = experiment: Cytotoxicity against human THP1 cells assessed as reduction in cell viability after 72 hrs by MTT assay; assay type: cell-based; conditions: THP-1, 72 h

## O=C(CCCCCCCCCCCCCCC[P+](c1cccc2ccccc12)(c1cccc2ccccc12)c1cccc2ccccc12)c1ccc(O)cc1O.[Br-]
Leishmania infantum [1]
  EC50: 3.54 µM
[2]
  selectivity ratio: 10.3
[3]
  Drug uptake: Active
[4]
  Drug uptake: Active
Leishmania infantum [5]
  EC50: 1.25 µM
[6]
  Drug uptake: Active
THP-1
  EC50: 12.8 µM
